Consider two molecules from patent US5484772A, “Antithrombotic agents” (Eli Lilly and Company, priority 1994, dated 1996).

Common to all, as to type: biochemical
The target of one test is T1, t-PA (Homo sapiens, UniProt P00750).
T1 construct: purchased American Diagnostica, Greenwich, Conn
The test is described as follows: t-PA amidase inhibition, chromogenic substrate (Kass). The following applies: apparent association constant; Hydrochloride.

The test system of test [1] is Human plasma. The test is described as follows: Human plasma anticoagulation, thrombin time (TT). The settings on record: concentration required to double thrombin time, linear extrapolation, Hydrochloride. On the procedure:
(§1) Dog plasma and rat plasma are obtained from conscious mixed-breed hounds (either sex, hazelton-LRE, Kalamazoo, Mich., U.S.A.) or from anesthetized male Sprague-Dawley rats (Harlan Sprague-Dawley, Inc., Indianapolis, Ind., U.S.A.) by venipuncture into 3.8 percent citrate. Fibrinogen is prepared from in-date ACD human blood as the fraction I-2 according to previous procedures and specifications. Smith, Blochem. J., 185, 1-11 (1980); and Smith, et al., Biochemistry, 11, 2958-2967 (1972). Human fibrinogen is also purchased as 98 percent pure/plasmin free from American Diagnostica, Greenwich, Conn. Coagulation reagents ACTIN, Thromboplastin, and Human plasma are from Baxter Healthcare Corp., Dade Division, Miami, Fla. Bovine thrombin from Parke-Davis (Ann Arbor, Mich.) is used for coagulation assays in plasma.
(§2) Coagulation assay procedures are as previously described. Smith, et al., Thrombosis Research, 50, 163-174 (1988). […] The prothrombin time (PT) is measured by adding 0.05 ml saline and 0.05 ml Thromboplastin-C reagent to 0.05 ml test plasma. The activated partial thromboplastin time (APTT) is measured by incubation of 0.05 ml test plasma with 0.05 ml Actin reagent for 120 seconds followed by 0.05 ml CaCl2 (0.02M). The thrombin time (TT) is measured by adding 0.05 ml saline and 0.05 ml thrombin (10 NIH units/ml) to 0.05 ml test plasma. […]

The target of another test is T2, Human plasmin (Homo sapiens, UniProt P00747).
T2 construct: Human plasmin is purchased from Boehringer Mannheim; purchased Boehringer Mannheim, Indianapolis, Ind
The test is described as follows: Plasmin amidase inhibition, chromogenic substrate (Kass). The settings on record: apparent association constant; Hydrochloride.

The next test addresses T3, Bovine trypsin (Bos taurus, UniProt P00760).
T3 construct: purchased Worthington Biochemicals, Freehold, N.J
T3 sequence (P00760 24-246): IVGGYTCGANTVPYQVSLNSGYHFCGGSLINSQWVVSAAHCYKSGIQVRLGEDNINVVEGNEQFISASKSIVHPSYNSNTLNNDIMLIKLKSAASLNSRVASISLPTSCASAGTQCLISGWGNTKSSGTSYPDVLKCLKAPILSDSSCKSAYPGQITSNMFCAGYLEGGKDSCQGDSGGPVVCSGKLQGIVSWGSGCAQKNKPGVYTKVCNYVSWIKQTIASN
The test is described as follows: Trypsin amidase inhibition, chromogenic substrate (Kass). The settings on record: apparent association constant; Hydrochloride.

The next test deals with human thrombin (Homo sapiens, UniProt P00734). The test is described as follows: Thrombin amidase inhibition, chromogenic substrate (Kass). The following applies: apparent association constant, mean over a range of concentrations; Hydrochloride. How it is done: The assay is carried out by mixing 50 μl buffer (0.03M Tris, 0.15M NaCl, pH 7.4), 25 μl of human thrombin solution (purified human thrombin, Enzyme Research Laboratories, South Bend, Ind., at 8 NIH units/ml) and 25 μl of test compound in a solvent (in 50% aqueous methanol, v:v). Then 150 μl of an aqueous solution of the chromogenic substrate (at 0.25 mg/ml) are added and the rates of hydrolysis of the substrate are measured by monitoring the reactions at 405 nm for the release of p-nitroaniline. Standard curves are constructed by plotting free thrombin concentration against hydrolysis rate. The hydrolysis rates observed with test compounds are then converted to free thrombin values in the respective assays by use of the standard curves. The bound thrombin (bound to test compound) is calculated by subtracting the amount of free thrombin observed in each assay from the known initial amount of thrombin used in the assay. The amount of free inhibitor in each assay is calculated by subtracting the number of moles of bound thrombin from the number of moles of added inhibitor (test compound).
The Kass value is the hypothetical equilibrium constant for the reaction between thrombin and the test compound (I). [formula] Kass is calculated for a range of concentrations of test compounds and the mean value is reported in units of liter per mole.

Test [2] has as its system Human plasma. The test is described as follows: Human plasma anticoagulation, prothrombin time (PT). The following applies: concentration required to double PT, linear extrapolation, Hydrochloride. On the procedure: as §1, §2
Test [3] concerns Human plasma. The test is described as follows: Human plasma anticoagulation, activated partial thromboplastin time (APTT). The settings on record: concentration required to double APTT, linear extrapolation, Hydrochloride. How it is done:
as §1, §2

The next test has as its target T4, Human factor Xa (Homo sapiens, UniProt P00742).
T4 construct: Human factors X, Xa, IXa, XIa, and XIIa are purchased; purchased Enzyme Research Laboratories, South Bend, Ind
The test is described as follows: Factor Xa amidase inhibition, chromogenic substrate (Kass). The following applies: apparent association constant; Hydrochloride.

Structures are written as SMILES.

T4 sequence (P00742 235-488 limits assumed): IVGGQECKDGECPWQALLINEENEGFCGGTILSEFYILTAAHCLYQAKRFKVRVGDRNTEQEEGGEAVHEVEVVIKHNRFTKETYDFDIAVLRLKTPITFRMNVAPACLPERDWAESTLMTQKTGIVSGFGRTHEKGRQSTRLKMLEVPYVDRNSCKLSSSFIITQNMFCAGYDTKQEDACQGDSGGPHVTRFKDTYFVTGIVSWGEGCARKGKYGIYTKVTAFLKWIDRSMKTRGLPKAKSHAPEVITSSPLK
T4 sequence (P00742 41-179 limits assumed): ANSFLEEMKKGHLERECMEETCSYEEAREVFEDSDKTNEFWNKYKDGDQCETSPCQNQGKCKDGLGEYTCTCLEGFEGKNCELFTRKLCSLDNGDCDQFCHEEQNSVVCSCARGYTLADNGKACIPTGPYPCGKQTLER
T1 sequence (P00750 36-562): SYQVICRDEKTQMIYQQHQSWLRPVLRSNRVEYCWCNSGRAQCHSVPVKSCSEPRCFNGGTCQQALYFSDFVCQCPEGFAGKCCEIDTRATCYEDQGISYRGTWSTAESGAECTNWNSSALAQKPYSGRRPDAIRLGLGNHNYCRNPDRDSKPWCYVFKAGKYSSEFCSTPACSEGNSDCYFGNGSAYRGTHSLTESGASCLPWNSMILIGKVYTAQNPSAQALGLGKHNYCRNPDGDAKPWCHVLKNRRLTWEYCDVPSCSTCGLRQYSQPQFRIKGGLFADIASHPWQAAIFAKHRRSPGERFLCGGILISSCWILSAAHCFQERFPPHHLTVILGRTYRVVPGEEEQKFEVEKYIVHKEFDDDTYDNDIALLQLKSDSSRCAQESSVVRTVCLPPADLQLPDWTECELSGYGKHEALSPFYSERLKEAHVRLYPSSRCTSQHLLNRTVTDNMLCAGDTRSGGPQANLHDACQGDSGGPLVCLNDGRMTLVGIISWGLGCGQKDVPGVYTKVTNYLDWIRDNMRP
T2 sequence (P00747 581-810 limits assumed): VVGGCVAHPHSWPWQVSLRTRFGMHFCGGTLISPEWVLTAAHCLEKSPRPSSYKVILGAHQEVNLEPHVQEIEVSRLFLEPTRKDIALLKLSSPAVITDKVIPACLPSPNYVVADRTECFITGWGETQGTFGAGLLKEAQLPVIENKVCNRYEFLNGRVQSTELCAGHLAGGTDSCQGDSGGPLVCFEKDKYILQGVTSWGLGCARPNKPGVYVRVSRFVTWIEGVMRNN
T2 sequence (P00747 97-580 limits assumed): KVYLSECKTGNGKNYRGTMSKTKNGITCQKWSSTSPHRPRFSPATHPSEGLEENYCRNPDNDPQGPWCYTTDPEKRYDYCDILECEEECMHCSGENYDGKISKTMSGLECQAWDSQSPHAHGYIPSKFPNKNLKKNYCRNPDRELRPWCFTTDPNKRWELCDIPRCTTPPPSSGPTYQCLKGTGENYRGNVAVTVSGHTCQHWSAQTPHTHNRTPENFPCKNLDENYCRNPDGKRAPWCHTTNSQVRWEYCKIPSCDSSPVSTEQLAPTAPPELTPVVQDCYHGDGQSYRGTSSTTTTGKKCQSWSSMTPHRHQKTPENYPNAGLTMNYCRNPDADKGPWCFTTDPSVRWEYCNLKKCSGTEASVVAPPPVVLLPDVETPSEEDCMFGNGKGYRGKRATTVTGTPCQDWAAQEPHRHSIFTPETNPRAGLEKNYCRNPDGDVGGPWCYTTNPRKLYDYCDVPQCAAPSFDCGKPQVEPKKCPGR

As for `CCOC(=O)N[C@@H](Cc1ccccc1)C(=O)N1CCC[C@@]1(C)C(=O)N[C@H](C=O)CCCNC(=N)N.Cl` [Example 5, N-Ethoxycarbonyl-L-phenylalanyl (αmethyl)-L-prolinyl-L-arginine Aldehyde Hydrochloride], the “Kass t-PA” value on t-PA turned out to be 0.00079 L/mol × 10^6. In the test on Human plasma [1], the “2 × Clotting time TT” value was 48 ng/mL. Also, the “Kass Plasmin” value on Human plasmin was 0.059 L/mol × 10^6. In addition, the “Kass Trypsin” value on Bovine trypsin worked out at 2.4 L/mol × 10^6. On human thrombin, the “Kass Human Thrombin” value was determined as 75 L/mol × 10^6. Also, the “2 × Clotting time PT” value in the test with Human plasma [2] was 2,200 ng/mL. Also, in the test with Human plasma [3], the “2 × Clotting time APTT” value was 2,500 ng/mL. Moreover, the “Kass Xa” value at Human factor Xa is on record as 0.044 L/mol × 10^6.

`CCOC(=O)NC(CC)(Cc1ccccc1)C(=O)N1CCC[C@H]1C(=O)N[C@H](C=O)CCCNC(=N)N.Cl` (stereo partly drawn) [Example 13, N-Ethoxycarbonyl-L-phenylalanyl (αethyl)-L-prolinyl-L-arginine Aldehyde Hydrochloride]: at t-PA, the “Kass t-PA” value amounted to 0.002 L/mol × 10^6. Further, the “2 × Clotting time TT” value in the test with Human plasma [1] is given as 93 ng/mL. In addition, the “Kass Plasmin” value on Human plasmin was found to be 0.12 L/mol × 10^6. In addition, the “Kass Trypsin” value at Bovine trypsin is reported as 4.9 L/mol × 10^6. Also, on human thrombin, the “Kass Human Thrombin” value was determined as 57 L/mol × 10^6. In addition, the “2 × Clotting time PT” value with Human plasma [2] is 3,300 ng/mL. Besides, the “Kass Xa” value on Human factor Xa turned out to be 0.036 L/mol × 10^6.
